Experimental data taken from patent publication US20230310388A1, “Methods and Compositions for Treating Fungal Infections” (Neoculi Pty Ltd, priority 2020, published 2023).
Values joined by “and” are separate entries in the source; they are usually repeats but may differ in a detail not shown here. Equal values may be shown once.

Tests used:
Assay type in all cases: cell-based
[1] = system: Candida albicans ATCC14053; experiment: Broth micro-dilution screen at 16 μg/mL and MIC (Example 9); conditions: for Screen at 16 μg/mL: single concentration 16 μg/mL, Growth or No growth of C. albicans ATCC14053; for MIC: C. albicans ATCC14053, test range 0.25-64 μg/mL, duplicate
Experimental: The antifungal activity of 201 NCL analogs against Candida albicans ATCC14053 in vitro was investigated. A broth micro-dilution method was used, according to CLSI guidelines as described. NCL analogs were dissolved in DMSO and originally screened at a single concentration of 16 μg/mL.

[2] = system: Cryptococcus neoformans; experiment: CLSI broth microdilution MIC (Example 4)
Experimental: (§1) Antifungal minimum inhibitory concentration (MIC) testing was undertaken as recommended by the CLSI. Briefly, antifungal susceptibility tests were performed for amphotericin B, robenidine (NCL812) and robenidine (NCL) analogs (NCL004, NCL020, NCL023, NCL024, NCL062, NCL094, NCL097, NCL110, NCL113, NCL114, NCL115, NCL135, NCL139, NCL180, NCL181, NCL195, NCL219, NCL220, NCL228, NCL247, NCL250, NCL259, NCL260, NCL263, NCL265, NCL269, NCL274) by standard broth microdilution method (CLSI) in RPMI 1640. Various concentrations (ranging from high to low) of the selected compounds were prepared in RPMI 1640 medium by double dilution in 96-well microtitre plates. Each well contained an inoculum of approximately 2×10^3 cells/mL. The wells without addition of drugs served as negative (no inoculum) and positive (inoculum only) growth controls. Microtitre plates were incubated at 35° C. for 24-48 hours. […] Antifungal MICs were determined for each isolate in duplicate; if the values obtained were different, the MIC test was repeated a third time.

[3] = system: Candida albicans; experiment: CLSI broth microdilution MIC (Example 4)
Experimental: as §1

SMILES | MIC at 24-48 hours ([2]; Cryptococcus neoformans SA1) [µg/mL] | MIC at 24-48 hours ([2]; Cryptococcus neoformans SA2) [µg/mL] | MIC at 24-48 hours ([3]; Candida albicans ATCC 90028) [µg/mL] | MIC at 24-48 hours ([3]; Candida albicans SA3) [µg/mL] | MIC [1] | Screen at 16 μg/mL [1]
OCC(=NNc1cc(NN=C(CO)c2ccc(Cl)cc2)ncn1)c1ccc(Cl)cc1 [NCL180] | >32 | >32 | >32 | >32 | – | Growth
Nc1nc(N/N=C/c2cc(O)c(O)c(O)c2)cc(N/N=C/c2cc(O)c(O)c(O)c2)n1 [NCL247] | >32 | >32 | >32 | >32 | 2 µg/mL and 4 µg/mL | No growth
Cl.N=C(N)N/N=C/c1ccc(C(F)(F)F)cc1F [NCL263] | >32 | >32 | >32 | >32 | – | Growth
CC(=NNC(=N)N)c1c[nH]c2ccccc12 [NCL269] | >32 | >32 | >32 | >32 | – | Growth
Cc1nc[nH]c1C=NNC(=N)N.Cl [NCL283] | – | – | – | – | – | Growth

Continued, in another order:

MIC at 24-48 hours ([2]; Cryptococcus neoformans SA1) [µg/mL] | MIC at 24-48 hours ([2]; Cryptococcus neoformans SA2) [µg/mL] | MIC at 24-48 hours ([3]; Candida albicans ATCC 90028) [µg/mL] | MIC at 24-48 hours ([3]; Candida albicans SA3) [µg/mL] | MIC [1] | SMILES | Screen at 16 μg/mL [1]
>32 | >32 | >32 | >32 | – | Clc1ccc(C=NNc2cc(NN=Cc3ccc(Cl)cc3)ncn2)cc1 [NCL181] | Growth
>32 | >32 | >32 | >32 | 0.5 µg/mL and 1 µg/mL | CCCCCCNC(=O)N(N=Cc1ccc(Cl)cc1)C(N)=NN=Cc1ccc(Cl)cc1 [NCL228] | No growth
>32 | >32 | >32 | >32 | – | Clc1ccc(/C=N/CC/N=C/c2ccc(Cl)cc2)cc1 [NCL250] | Growth
>32 | >32 | >32 | >32 | – | Clc1ccc(CNCCNCc2ccc(Cl)cc2)cc1 [NCL260] | Growth
